{"source": "the NIST ThermoML archive (doi:10.1021/je201301b)", "settings": "101.33 kPa, Liquid, Vibrating tube method", "note": "Numbers after ± are expanded uncertainties."}
{"smiles": "CCCCCCOCn1cc[n+](COCCCCCC)c1.O=S(=O)([N-]S(=O)(=O)C(F)(F)F)C(F)(F)F", "values": [{"measurement": "mass density", "setting": "298.15 K", "result": "1254.89 ± 3.9", "unit": "kg/m3"}, {"measurement": "mass density", "setting": "308.15 K", "result": "1246.07 ± 3.9", "unit": "kg/m3"}, {"measurement": "mass density", "setting": "318.15 K", "result": "1237.28 ± 3.8", "unit": "kg/m3"}, {"measurement": "mass density", "setting": "328.15 K", "result": "1228.51 ± 3.8", "unit": "kg/m3"}, {"measurement": "mass density", "setting": "338.15 K", "result": "1219.66 ± 3.7", "unit": "kg/m3"}, {"measurement": "mass density", "setting": "348.15 K", "result": "1210.87 ± 3.7", "unit": "kg/m3"}]}
{"smiles": "CCCCCCOCn1cc[n+](C)c1.F[B-](F)(F)F", "note": "[1-hexyloxymethyl-3-methylimidazolium tetrafluoroborate]", "values": [{"measurement": "mass density", "setting": "298.15 K", "result": "1153.1 ± 3.3", "unit": "kg/m3"}, {"measurement": "mass density", "setting": "308.15 K", "result": "1145.76 ± 3.2", "unit": "kg/m3"}, {"measurement": "mass density", "setting": "318.15 K", "result": "1138.71 ± 3.2", "unit": "kg/m3"}, {"measurement": "mass density", "setting": "328.15 K", "result": "1131.65 ± 3.2", "unit": "kg/m3"}, {"measurement": "mass density", "setting": "338.15 K", "result": "1124.63 ± 3.1", "unit": "kg/m3"}, {"measurement": "mass density", "setting": "348.15 K", "result": "1117.63 ± 3.1", "unit": "kg/m3"}]}
